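How tested: cells in 96-well plates exposed to compound for 48 hours at five concentrations. At the GI50, growth is halved. At the TGI there is no net growth.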
How the values were obtained:
Assay in all cases: NCI-60 cell line screen, 48 h
EKVX NSCLC = test system: EKVX NSCLC
HS 578T breast = test system: HS 578T breast
OVCAR-3 ovarian = test system: OVCAR-3 ovarian
OVCAR-8 ovarian = test system: OVCAR-8 ovarian
PC-3 prostate = test system: PC-3 prostate
RPMI-8226 leukemia = test system: RPMI-8226 leukemia
RXF 393 renal = test system: RXF 393 renal
SN12C renal = test system: SN12C renal
SR leukemia = test system: SR leukemia
UO-31 renal = test system: UO-31 renal

In the case of O=C(N[C@@H](Cc1coc2ccccc12)B(O)O)[C@@H]1C[C@H]2CC[C@@H]1O2, the GI50 (EKVX NSCLC) is reported as 22.7 µM, the TGI (EKVX NSCLC) is reported as > 100 µM and the GI50 (HS 578T breast) is reported as 3.81 µM. For the same molecule, the TGI (HS 578T breast) was 66.6 µM, the GI50 (OVCAR-3 ovarian) was 4.04 µM and the TGI (OVCAR-3 ovarian) was > 100 µM. For the same molecule, the GI50 (OVCAR-8 ovarian) was 80.8 µM, the TGI (OVCAR-8 ovarian) was > 100 µM and the GI50 (PC-3 prostate) was 41.2 µM. For the same molecule, the TGI (PC-3 prostate) was > 100 µM, the GI50 (RPMI-8226 leukemia) was 0.45 µM and the TGI (RPMI-8226 leukemia) was 5.2 µM. For the same molecule, the GI50 (RXF 393 renal) was 1.86 µM, the TGI (RXF 393 renal) was 5.94 µM and the GI50 (SN12C renal) was 9.24 µM. For the same molecule, the TGI (SN12C renal) was > 100 µM, the GI50 (SR leukemia) was 1.26 µM and the TGI (SR leukemia) was > 100 µM. For the same molecule, the GI50 (UO-31 renal) was 2 µM and the TGI (UO-31 renal) was 11.3 µM.
In the case of COc1ccc2c(c1)c(-c1nc(-c3c[nH]c4ncccc34)cs1)cn2CCCCN1CCCCC1, the GI50 (HS 578T breast) is reported as 1.66 µM, the TGI (HS 578T breast) is reported as 4.38 µM and the GI50 (OVCAR-3 ovarian) is reported as 1.76 µM. The TGI (OVCAR-3 ovarian) was 3.24 µM, the GI50 (PC-3 prostate) was 1.52 µM and the TGI (PC-3 prostate) was 2.93 µM. It also gave a GI50 (UO-31 renal) of 1.38 µM and a TGI (UO-31 renal) of 2.77 µM.
CNC(C)C(O)c1ccc2oc3cc(=O)c4ccccc4c-3nc2c1 (stereo not given) was tested, and the TGI (EKVX NSCLC) was > 100 µM, the TGI (HS 578T breast) was 8.48 µM and the TGI (OVCAR-3 ovarian) was 28.7 µM. The TGI (OVCAR-8 ovarian) was > 100 µM, the TGI (PC-3 prostate) was > 100 µM and the TGI (RPMI-8226 leukemia) was > 100 µM. For the same molecule, the TGI (RXF 393 renal) was 84.8 µM, the TGI (SN12C renal) was 25.1 µM and the TGI (UO-31 renal) was 67 µM.
Nc1nc(SCc2ccccc2Cl)c2[nH]cnc2n1 was tested, and the TGI (EKVX NSCLC) was > 100 µM, the TGI (OVCAR-3 ovarian) was > 100 µM and the TGI (OVCAR-8 ovarian) was > 100 µM. The TGI (RPMI-8226 leukemia) was > 100 µM, the TGI (RXF 393 renal) was > 100 µM and the TGI (SN12C renal) was > 100 µM. For the same molecule, the TGI (SR leukemia) was > 100 µM and the TGI (UO-31 renal) was > 100 µM.
In the case of C=CCCC1(C)CCCNC1=S (stereo not given), the TGI (EKVX NSCLC) is reported as > 100 µM, the TGI (OVCAR-3 ovarian) is reported as > 100 µM and the TGI (OVCAR-8 ovarian) is reported as > 100 µM. The TGI (RPMI-8226 leukemia) was > 100 µM, the TGI (RXF 393 renal) was > 100 µM and the TGI (SN12C renal) was > 100 µM. For the same molecule, the TGI (SR leukemia) was > 100 µM and the TGI (UO-31 renal) was > 100 µM.
CCOC(=O)c1sc2nc(SC)nc(Nc3ccc4c(c3)OCCO4)c2c1N gave a TGI (EKVX NSCLC) of 26.6 µM, a TGI (OVCAR-3 ovarian) of 26.7 µM and a TGI (OVCAR-8 ovarian) of 23.1 µM. It also gave a TGI (PC-3 prostate) of 29.7 µM, a TGI (RPMI-8226 leukemia) of 77.1 µM and a TGI (RXF 393 renal) of 16.9 µM. For the same molecule, the TGI (SN12C renal) was 29.9 µM, the TGI (SR leukemia) was > 100 µM and the TGI (UO-31 renal) was 36.7 µM.
CCCO[C@@H]1[C@@H](OC(C)=O)[C@@H](OC(C)=O)C(C)(C)/C=C/[C@H](C)C(=O)[C@@]2(OC(C)=O)C[C@@](C)(OC(C)=O)[C@H](OC(C)=O)[C@@H]2[C@H]2OC(=O)CC[C@@]12OC(=O)c1ccccc1 was tested, and the TGI (EKVX NSCLC) was > 25 µM, the TGI (HS 578T breast) was > 25 µM and the TGI (OVCAR-3 ovarian) was > 25 µM. For the same molecule, the TGI (OVCAR-8 ovarian) was > 25 µM, the TGI (PC-3 prostate) was > 25 µM and the TGI (RXF 393 renal) was > 25 µM. The TGI (SN12C renal) was > 25 µM and the TGI (UO-31 renal) was > 25 µM.
With O=C1c2ccccc2OCC12OC21C=CC(Cl)=CC1 (stereo not given) the TGI (EKVX NSCLC) was 51.8 µM, the TGI (OVCAR-3 ovarian) was 42.1 µM and the TGI (PC-3 prostate) was > 100 µM. The TGI (RPMI-8226 leukemia) was 47.4 µM, the TGI (RXF 393 renal) was 46.8 µM and the TGI (SN12C renal) was 35.3 µM. The TGI (SR leukemia) was 17.5 µM and the TGI (UO-31 renal) was 65.1 µM.
In the case of CCC(=O)OCN(C)c1nc(N(C)COC(=O)CC)nc(N(C)COC(=O)CC)n1, the TGI (HS 578T breast) is reported as > 100 µM, the TGI (OVCAR-3 ovarian) is reported as > 100 µM and the TGI (OVCAR-8 ovarian) is reported as > 100 µM. The TGI (PC-3 prostate) was > 100 µM, the TGI (RPMI-8226 leukemia) was 76 µM and the TGI (RXF 393 renal) was 25.5 µM. The TGI (SN12C renal) was > 100 µM, the TGI (SR leukemia) was 71 µM and the TGI (UO-31 renal) was > 100 µM.
Cc1nc2ccc(S(=O)(=O)Nc3nccs3)cc2c(=O)n1NS(=O)(=O)c1nccs1 was tested, and the TGI (EKVX NSCLC) was > 100 µM, the TGI (HS 578T breast) was > 100 µM and the TGI (OVCAR-3 ovarian) was > 100 µM. For the same molecule, the TGI (OVCAR-8 ovarian) was > 100 µM, the TGI (PC-3 prostate) was > 100 µM and the TGI (RPMI-8226 leukemia) was > 100 µM. The TGI (RXF 393 renal) was > 100 µM, the TGI (SN12C renal) was > 100 µM and the TGI (UO-31 renal) was > 100 µM.
With CCCCC1C=Cn2c(=O)oc3c(OC(C)C)c(C)c(O)c1c32 (stereo not given) the TGI (EKVX NSCLC) was 6.83 µM, the TGI (HS 578T breast) was 14.3 µM and the TGI (OVCAR-3 ovarian) was 14.8 µM. For the same molecule, the TGI (OVCAR-8 ovarian) was 11.4 µM, the TGI (PC-3 prostate) was 14.2 µM and the TGI (RPMI-8226 leukemia) was 11.8 µM. For the same molecule, the TGI (SN12C renal) was 3.71 µM, the TGI (SR leukemia) was 6.17 µM and the TGI (UO-31 renal) was 7.02 µM.

Reference: PubChem BioAssay (NCI)
